Test results reported in PubChem BioAssay AID2060602 (Molecular Pharmacology Branch, DTP, NCI, 2025).
Where “and” joins values, the source holds several entries; their conditions need not be identical. Equal entries are not always repeated.

Tested on: 648629-189-R-J1-PDC complex spheroids viability
Assay: Anticancer human tumor 648629-189-R-J1-PDC patient-derived bladder carcinoma cell line growth inhibition [CLK]
Conditions: for viability, T/C: stronger effect = lower value
Outline: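 Multi-cell-type spheroids combined patient-derived tumor cells with HUVEC endothelial cells and human mesenchymal stem cells. Paired agents were dosed in half-log steps down from about clinical Cmax, or from 10 microM where Cmax was unknown.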
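Wherever viability, T/C is given: drug exposure lasted seven days before viability readout; 100% = DMSO vehicle control wells.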

With `NC(=O)C(=Cn1cnc(-c2cc(C(F)(F)F)cc(C(F)(F)F)c2)n1)c1cncnc1` + CNC(=O)c1ccc(Nc2nc(OC3CCCC3)c3c(-c4ccc5nc(C)oc5c4)c[nH]c3n2)c(OC)c1 the IC50 (curve of first compound, second compound 0.0316 µM) was 0.0522 µM, the IC50 (curve of first compound, second compound 0.1 µM) was 0.0445 µM and the IC50 (curve of first compound, second compound 0.316 µM) was less than 0.00949 µM. It also gave an IC50 (curve of first compound, second compound 1 µM) of less than 0.00949 µM, an IC50 (curve of first compound, second compound 3.16 µM) of less than 0.00949 µM and an IC50 (curve of first compound, second compound 10 µM) of less than 0.00949 µM. For the same compound, the viability, T/C (second compound 0.0316 µM, first compound 0.00949 µM) was 99%, the viability, T/C (second compound 0.0316 µM, first compound 0.03 µM) was 83.4% and the viability, T/C (second compound 0.0316 µM, first compound 0.0949 µM) was 13.9%. The viability, T/C (second compound 0.0316 µM, first compound 0.3 µM) was 5.54%, the viability, T/C (second compound 0.0316 µM, first compound 0.949 µM) was 2.71% and the viability, T/C (second compound 0.0316 µM, first compound 3 µM) was 2.7%. The viability, T/C (second compound 0.1 µM, first compound 0.00949 µM) was 94.1%, the viability, T/C (second compound 0.1 µM, first compound 0.03 µM) was 68.2% and the viability, T/C (second compound 0.1 µM, first compound 0.0949 µM) was 14.8%. For the same compound, the viability, T/C (second compound 0.1 µM, first compound 0.3 µM) was 4.73%, the viability, T/C (second compound 0.1 µM, first compound 0.949 µM) was 2.15% and the viability, T/C (second compound 0.1 µM, first compound 3 µM) was 2.48%. For the same compound, the viability, T/C (second compound 0.316 µM, first compound 0.00949 µM) was 22.4%, the viability, T/C (second compound 0.316 µM, first compound 0.03 µM) was 17.4% and the viability, T/C (second compound 0.316 µM, first compound 0.0949 µM) was 7.71%. The viability, T/C (second compound 0.316 µM, first compound 0.3 µM) was 2.5%, the viability, T/C (second compound 0.316 µM, first compound 0.949 µM) was 1.35% and the viability, T/C (second compound 0.316 µM, first compound 3 µM) was 2.05%. For the same compound, the viability, T/C (second compound 1 µM, first compound 0.00949 µM) was 18.1%, the viability, T/C (second compound 1 µM, first compound 0.03 µM) was 11.5% and the viability, T/C (second compound 1 µM, first compound 0.0949 µM) was 4.85%. The viability, T/C (second compound 1 µM, first compound 0.3 µM) was 1.29%, the viability, T/C (second compound 1 µM, first compound 0.949 µM) was 0.91% and the viability, T/C (second compound 1 µM, first compound 3 µM) was 0.42%. It also gave a viability, T/C (second compound 3.16 µM, first compound 0.00949 µM) of 14.7%, a viability, T/C (second compound 3.16 µM, first compound 0.03 µM) of 11.7% and a viability, T/C (second compound 3.16 µM, first compound 0.0949 µM) of 5.56%. For the same compound, the viability, T/C (second compound 3.16 µM, first compound 0.3 µM) was 1.15%, the viability, T/C (second compound 3.16 µM, first compound 0.949 µM) was 1.87% and the viability, T/C (second compound 3.16 µM, first compound 3 µM) was 1.75%. For the same compound, the viability, T/C (second compound 10 µM, first compound 0.00949 µM) was 15.4%, the viability, T/C (second compound 10 µM, first compound 0.03 µM) was 8.85% and the viability, T/C (second compound 10 µM, first compound 0.0949 µM) was 5.59%. For the same compound, the viability, T/C (second compound 10 µM, first compound 0.3 µM) was 1.56%, the viability, T/C (second compound 10 µM, first compound 0.949 µM) was 1.79% and the viability, T/C (second compound 10 µM, first compound 3 µM) was 0.33%.
For `CCCS(=O)(=O)Nc1ccc(F)c(C(=O)c2c[nH]c3ncc(-c4ccc(Cl)cc4)cc23)c1F`, the viability, T/C (compound 0.0316 µM) was 99.7% and 107%, the viability, T/C (compound 0.1 µM) was 97% and 82.6% and the viability, T/C (compound 0.316 µM) was 98.6% and 98.2%. The viability, T/C (compound 1 µM) was 104% and 93.3%, the viability, T/C (compound 3.16 µM) was 108% and 90% and the viability, T/C (compound 10 µM) was 32.9% and 19.8%. For the same compound, the IC50 (curve of compound) was 7.51 µM and 6.09 µM.
In the case of `Cn1ncnc1[C@H]1c2n[nH]c(=O)c3cc(F)cc(c23)N[C@@H]1c1ccc(F)cc1`, the viability, T/C (compound 0.000316 µM) is reported as 106% and 98.8%, the viability, T/C (compound 0.001 µM) is reported as 84.9% and 101% and the viability, T/C (compound 0.00316 µM) is reported as 99.2% and 97.4%. For the same compound, the viability, T/C (compound 0.01 µM) was 83.2% and 92.6%, the viability, T/C (compound 0.0316 µM) was 73.8% and 77.2% and the viability, T/C (compound 0.1 µM) was 67.4% and 71.5%. For the same compound, the IC50 (curve of compound) was greater than 0.1 µM.
